The values that follow come from patent publication US8431715B2, “Thiazole compound (as PPARδ) ligand and pharmaceutical, cosmetic and health food comprised thereof” (Seoul National University Industry Foundation, priority 2007, dated 2013).

The structures appear in SMILES notation.

In one data set the test system is C57BL/6 mice. Kind of data set: Obesity inhibitory effect, high-fat feed. It counts as in vivo. Particulars: 10 mg/Kg/day oral, 35% fat feed for 35 days; vehicle 58.9%. As for the experimental part: An animal test using mice was performed to confirm the in vivo effect of the compound of the present invention. C57BL/6 (SLC Co.) mice at 14 weeks were used. To induce obesity, feeds containing 35% fat were given.

For another data set, the system named is CV-1 cells. The data set is described as follows: MTT assay, cytotoxicity. Particulars: 24 hours, even at the concentration of 100,000 times the EC50 value. The format is cell-based. As for the experimental part:
MTT assay was performed to test cytotoxicity of the compounds of the present invention. MTT is a yellow substance soluble in water, but when it is introduced into a living cell, it turns into a purple insoluble crystal by dehydrogenase in mitochondria. Cytotoxicity can be confirmed by measuring OD550 after dissolving MTT in dimethylsulfoxide. The experiment was performed as follows.
CV-1 cells were inoculated in a 96-well plate (5000 cells/well). The cells were cultured in a 37[…] 5% CO2 incubator for 24 hours, and treated with the compounds of formula 1 and formula 2 at different concentrations. Then, the cells were cultured for 24 hours again, to which MTT reagent was added. After culturing for 15 minutes, the generated purple crystals were dissolved in dimethylsulfoxide. Optical density was measured with a microplate reader to confirm cytotoxicity.
(Formazan colour is commonly taken as a measure of viable cells.)

In the data set with C57BL/6 mice, `Cc1cc(S[C@H](Cc2ccccc2)c2sc(-c3ccc(C(F)(F)F)cc3)nc2C)ccc1OCC(=O)O` (racemic) [formula 1] came in with a weight increase of 23.1%. The cytotoxicity entry with CV-1 cells is listed as “not to have cytotoxicity”.
